Laboratory results: PubChem BioAssay AID1963874 (Molecular Pharmacology Branch, DTP, NCI, 2024)

Test system: 253994-281-T-J1-PDC KRAS-mutant spheroids with HUVEC/MSC, viability
Test: Anticancer human tumor 253994-281-T-J1-PDC patient-derived colorectal carcinoma cell line growth inhibition [KRAS2]
Conditions: for IC50: curve of first compound; for viability, T/C: stronger effect = lower value
Outline: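 KRAS-mutant tumor cells were grown as spheroids with HUVEC endothelial cells and human MSCs as stroma. Targeted agents were tested alone and with KRAS pathway inhibitors. Doses started at or near clinical Cmax, or 10 microM, descending half-log.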

[1] = second compound 0.1 µM, first compound 0.0316 µM
[2] = second compound 0.1 µM, first compound 0.1 µM
[3] = second compound 0.1 µM, first compound 0.316 µM
[4] = second compound 0.1 µM, first compound 1 µM
[5] = second compound 0.1 µM, first compound 3.16 µM
[6] = second compound 0.1 µM, first compound 10 µM
[7] = second compound 0.316 µM, first compound 0.0316 µM
[8] = second compound 0.316 µM, first compound 0.1 µM
[9] = second compound 0.316 µM, first compound 0.316 µM
[10] = second compound 0.316 µM, first compound 1 µM
[11] = second compound 0.316 µM, first compound 3.16 µM
[12] = second compound 0.316 µM, first compound 10 µM
[13] = second compound 1 µM, first compound 0.0316 µM
[14] = second compound 1 µM, first compound 0.1 µM
[15] = second compound 1 µM, first compound 0.316 µM
[16] = second compound 1 µM, first compound 1 µM
[17] = second compound 1 µM, first compound 3.16 µM
[18] = second compound 1 µM, first compound 10 µM
[19] = second compound 3.16 µM, first compound 0.0316 µM
[20] = second compound 3.16 µM, first compound 0.1 µM
[21] = second compound 3.16 µM, first compound 0.316 µM
[22] = second compound 3.16 µM, first compound 1 µM
[23] = second compound 3.16 µM, first compound 3.16 µM
[24] = second compound 3.16 µM, first compound 10 µM
[25] = second compound 10 µM, first compound 0.0316 µM
[26] = second compound 10 µM, first compound 0.1 µM
[27] = second compound 10 µM, first compound 0.316 µM
[28] = second compound 10 µM, first compound 1 µM
[29] = second compound 10 µM, first compound 3.16 µM
[30] = second compound 10 µM, first compound 10 µM
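Note: spheroids exposed to agents for seven days before readout.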
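Throughout, for viability, T/C: percent of DMSO vehicle control viability.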

CC(C)NCC(C(=O)N1CCN(c2ncnc3c2C(C)CC3O)CC1)c1ccc(Cl)cc1 (stereo not given) + CC1OCC2(CCN(c3cnc(Sc4ccnc(N)c4Cl)c(N)n3)CC2)C1N
IC50 (second compound 0.1 µM): > 10000 nM
IC50 (second compound 0.316 µM): > 10000 nM
IC50 (second compound 1 µM): > 10000 nM
IC50 (second compound 3.16 µM): > 10000 nM
IC50 (second compound 10 µM): < 31.6 nM
viability, T/C [1]: 107%
viability, T/C [2]: 101%
viability, T/C [3]: 99.8%
viability, T/C [4]: 90.7%
viability, T/C [5]: 85.2%
viability, T/C [6]: 85.8%
viability, T/C [7]: 95.1%
viability, T/C [8]: 91%
viability, T/C [9]: 86.4%
viability, T/C [10]: 84.7%
viability, T/C [11]: 101%
viability, T/C [12]: 84.3%
viability, T/C [13]: 84.7%
viability, T/C [14]: 77.9%
viability, T/C [15]: 72.9%
viability, T/C [16]: 83.5%
viability, T/C [17]: 83%
viability, T/C [18]: 93%
viability, T/C [19]: 57.8%
viability, T/C [20]: 59.5%
viability, T/C [21]: 63.9%
viability, T/C [22]: 70.6%
viability, T/C [23]: 77.7%
viability, T/C [24]: 84.3%
viability, T/C [25]: 36.3%
viability, T/C [26]: 41%
viability, T/C [27]: 41.1%
viability, T/C [28]: 51.9%
viability, T/C [29]: 58%
viability, T/C [30]: 55%

CC(C)n1nc(-c2ccc3oc(N)nc3c2)c2c(N)ncnc21 + CC1OCC2(CCN(c3cnc(Sc4ccnc(N)c4Cl)c(N)n3)CC2)C1N
IC50 (second compound 0.1 µM): > 100 nM
IC50 (second compound 0.316 µM): > 100 nM
IC50 (second compound 1 µM): 87.6 nM
IC50 (second compound 3.16 µM): 17.7 nM
IC50 (second compound 10 µM): < 0.316 nM
viability, T/C (second compound 0.1 µM, first compound 0.000316 µM): 97.9%
viability, T/C (second compound 0.1 µM, first compound 0.001 µM): 100%
viability, T/C (second compound 0.1 µM, first compound 0.00316 µM): 101%
viability, T/C (second compound 0.1 µM, first compound 0.01 µM): 81%
viability, T/C [1]: 76.5%
viability, T/C [2]: 56.9%
viability, T/C (second compound 0.316 µM, first compound 0.000316 µM): 93.6%
viability, T/C (second compound 0.316 µM, first compound 0.001 µM): 76.7%
viability, T/C (second compound 0.316 µM, first compound 0.00316 µM): 78.9%
viability, T/C (second compound 0.316 µM, first compound 0.01 µM): 77.7%
viability, T/C [7]: 68.5%
viability, T/C [8]: 49.8%
viability, T/C (second compound 1 µM, first compound 0.000316 µM): 85.3%
viability, T/C (second compound 1 µM, first compound 0.001 µM): 73.2%
viability, T/C (second compound 1 µM, first compound 0.00316 µM): 82.8%
viability, T/C (second compound 1 µM, first compound 0.01 µM): 67.8%
viability, T/C [13]: 57.6%
viability, T/C [14]: 49.4%
viability, T/C (second compound 3.16 µM, first compound 0.000316 µM): 62%
viability, T/C (second compound 3.16 µM, first compound 0.001 µM): 64.6%
viability, T/C (second compound 3.16 µM, first compound 0.00316 µM): 67.3%
viability, T/C (second compound 3.16 µM, first compound 0.01 µM): 55.2%
viability, T/C [19]: 44%
viability, T/C [20]: 36.5%
viability, T/C (second compound 10 µM, first compound 0.000316 µM): 40.1%
viability, T/C (second compound 10 µM, first compound 0.001 µM): 40.7%
viability, T/C (second compound 10 µM, first compound 0.00316 µM): 43.2%
viability, T/C (second compound 10 µM, first compound 0.01 µM): 44.5%
viability, T/C [25]: 39.2%
viability, T/C [26]: 28.2%

CC1(C)CCC(CN2CCN(c3ccc(C(=O)NS(=O)(=O)c4ccc(NCC5CCOCC5)c([N+](=O)[O-])c4)c(Oc4cnc5[nH]ccc5c4)c3)CC2)=C(c2ccc(Cl)cc2)C1 + CC1OCC2(CCN(c3cnc(Sc4ccnc(N)c4Cl)c(N)n3)CC2)C1N
IC50 (second compound 0.1 µM): > 10000 nM
IC50 (second compound 0.316 µM): > 10000 nM
IC50 (second compound 1 µM): > 10000 nM
IC50 (second compound 3.16 µM): 2820 nM
IC50 (second compound 10 µM): < 31.6 nM
viability, T/C [1]: 88.2%
viability, T/C [2]: 100%
viability, T/C [3]: 85.4%
viability, T/C [4]: 103%
viability, T/C [5]: 81.6%
viability, T/C [6]: 72.9%
viability, T/C [7]: 77%
viability, T/C [8]: 82.1%
viability, T/C [9]: 79.9%
viability, T/C [10]: 80.4%
viability, T/C [11]: 72%
viability, T/C [12]: 51.1%
viability, T/C [13]: 89.5%
viability, T/C [14]: 72.9%
viability, T/C [15]: 72.5%
viability, T/C [16]: 79.3%
viability, T/C [17]: 65.7%
viability, T/C [18]: 49.5%
viability, T/C [19]: 66.2%
viability, T/C [20]: 67.7%
viability, T/C [21]: 63.7%
viability, T/C [22]: 61%
viability, T/C [23]: 48.7%
viability, T/C [24]: 35%
viability, T/C [25]: 38.3%
viability, T/C [26]: 36.6%
viability, T/C [27]: 47.5%
viability, T/C [28]: 47.1%
viability, T/C [29]: 35%
viability, T/C [30]: 4.16%
